For series [1], the system named is Plasmodium falciparum 3D7 asexual blood stage.
A further series has as its system P. falciparum ABS. The settings on record: ChEMBL Data, cited from earlier work.
In series [2] the test system is NF54-pfs16-LUC-GFP stage IV gametocytes. Nature of the series: Plasmodium falciparum late stage gametocyte (LSG) image-based assay. It is filed as cell-based. The settings on record: for IC50 / inhibition at 20 µM: Plasmodium falciparum; for IC50: NF54, read-out: IC50 P. falciparum NF54 LSG, reference compound set, 11-point dose response, IA = inactive at 20 μM; for inhibition at 20 µM: NF54, read-out: percent inhibition at the top screening dose, P. falciparum NF54 LSG.

Another series concerns HepG2. The settings on record: read-out: HepG2 PBox CC50 µM; HepG2 cytotoxicity; ref PBox supporting information; cited from earlier work.
The test system of series [3] is Plasmodium falciparum 3D7 asexual blood stage. Nature of the series: microbe, parasite or virus in culture.
Series [4] relates to L. donovani MHOM/IN/80/DD8 intracellular amastigotes. Description: Leishmania donovani intracellular amastigote assay in THP-1 cells. The settings on record: for IC50 / inhibition at 20 µM: Leishmania donovani, reference compound set; for IC50: IA = inactive at 20 μM; for inhibition at 20 µM: THP-1. It is filed as cell-based.
The test system of series [5] is T. cruzi intracellular amastigotes. Description: Intracellular anti-Trypanosoma cruzi image-based assay (amastigotes). The settings on record: Trypanosoma cruzi; for Emax: read-out: T. cruzi Emax (maximal % inhibition plateau in dose response curve). It is filed as cell-based.
In series [6] the test system is T. b. brucei 427 bloodstream trypanosomes. Nature of the series: T. b. brucei resazurin viability assay. It is filed as cell-based, Trypanosoma brucei brucei. To be noted: Trypanosoma brucei; for inhibition at 20 µM: read-out: percent inhibition at the top screening dose, T. brucei brucei. For orientation: Resazurin is reduced to fluorescent resorufin, in cell work by metabolically active cells.

In a further series the test system is 3T3 host cells. Nature of the series: T. cruzi assay, activity against 3T3 host cells. It is filed as cell-based. The settings on record: reference compound set; for IC50: IA = inactive at 16.4 μM. The method, then:
page 4: […] Puromycin, 71 chloroquine, artesunate, DHA, pyronaridine and pyrimethamine were also tested in 72 IC50 format to act as internal reference compounds. 73 74 Intracellular anti-Trypanosoma cruzi Assay Protocol 75 The host cell cytoplasm, in which the parasite resides, is identified by the fluorescent 76 marker, HCS CellMask Green. Parasite and host cell nuclei are detected with the 77 fluorescent DNA intercalator, Hoechst 33342. The Opera® High Content Screening 78 System is used to take images of wells and a spot detection algorithm is used to 79 identify parasites within the cytoplasm. 80 81 Briefly, 1x 10^3 3T3 cells were added to collagen coated 384-well plates and following 82 24 hrs incubation at 37 °C, a multiplicity of infection (MOI) of 5:1 parasite: host cells 83 were added to the plate using a Multidrop liquid handler. Following additional 24 hrs 84 incubation, extracellular parasites were washed from the plates and RPMI with no […] 86 added to all wells. The final volume of media in the primary screening assay, before 87 addition of compound, was modified slightly to 55 µL. One µL of compounds, provided 88 by Compounds Australia, were diluted by the addition of 25 µL of sterile water. This […] 91 donovani). Five microliters of this dilution was added to assay plates. The final […] The final concentrations of compounds in the […] Following 48 hrs incubation in the presence 97 of compounds, wells were fixed, stained and read on the Opera® High Content 98 Screening System to assess compound activity. 99 The Z′-factor, as a measure of assay reproducibility, was determined from a plate […] The positive control used to calculate activity against […] To 103 assess the sensitivity of the T. cruzi assay, activity of the reference compounds 104 benznidazole, NFX, posaconazole and puromycin were determined. […] 108 resazurin as a measure of parasite viability. 109 T. b. brucei trypanosomes were cultured in vitro in HM1-9 medium supplemented with […] Fifty-five µL of logarithmic phase […] 112 incubated for 24 hrs at 37°C /5% CO2. Compounds were subsequently added to the […] Following […] 116 37°C / 5% CO2 followed by 22 hrs at room temperature. […] The percent

The test system of the next series is HEK293 cells. Nature of the series: HEK293 resazurin cell cytotoxicity assay. To be noted: reference compound set, top screening dose.
[7] abbreviates: THP-1, read-out: IC50 L. donovani n = 1, first test.
Where [8] appears, read: THP-1, read-out: IC50 L. donovani n = 2, second test.
[9] abbreviates: reference compound set, IA = inactive at 16.4 μM, read-out: IC50 T. cruzi intracellular amastigotes.
[10] abbreviates: reference compound set, IA = inactive at 20 μM, read-out: IC50 T. brucei brucei trypomastigotes.
[11] abbreviates: 3D7, read-out: IC50 P. falciparum 3D7 ABS.
Where [12] appears, read: 3D7, read-out: IC50 P. falciparum 3D7 ABS, reference compound set, 11-point dose response, IA = inactive at 20 μM.
Setting [13] is: in-house control stock, not the PBox sample, read-out: IC50 of standard in-house assay control, T. cruzi amastigotes.
Setting [14] is: first test, 20 μM, read-out: percent inhibition at the top screening dose, L. donovani n = 1.
[15] abbreviates: second test, 20 μM, read-out: percent inhibition at the top screening dose, L. donovani n = 2.

The source of these data is article PMC5571359, “Screening the Medicines for Malaria Venture Pathogen Box across Multiple Pathogens Reclassifies Starting Points for Open-Source Drug Discovery” (Antimicrobial Agents and Chemotherapy, 2017).

Like-named read-outs stand apart in the source and are kept apart here.

As usually defined, the CC50 is the concentration at which the toxic effect on the cells reaches its halfway point. In general, Emax refers to the size of the effect at its maximum, as opposed to the concentration needed. In general, inhibition refers to the drop in the measured response relative to a control, in per cent.

Regarding `O=C(C1CCN(c2nnnn2-c2ccccc2)CC1)N1CCc2ccccc2C1` [MMV009135], the “activity in the Discovery Biology ABS assay” value in series [1] is “did not show any activity”. Further, the EC50 in the series with P. falciparum ABS (NITD, read-out: NITD (ref 94) EC50) was 1.3 µM; in the series with P. falciparum ABS (TCMDC, read-out: TCMDC (ref 93) EX50), 0.71 µM. Besides, the “activity in the Discovery Biology stage IV gametocyte (LSG) assay” value in series [2] is “did not show any activity”.
As for `c1ccc(C[C@@H]2CN(c3nccc(Oc4ccc(-n5ccnc5)cc4)n3)CCN2)cc1` [MMV687749], the IC50 in [1] (read-out: Antiplasmodial IC50 (ABS), PBox compounds, P. falciparum 3D7) is 2.08 µM; in series [3] (3D7, read-out: Antiplasmodial IC50 (ABS), PBox compounds, P. falciparum 3D7) it was 2 µM; in [3] (3D7, read-out: activity against P. falciparum (novel antiplasmodial actives of the tuberculosis set)), below 2 µM. Moreover, in the series on HepG2, the CC50 is 29 µM.
As to `COC(=O)Nc1nc2ccc(C(=O)c3ccccc3)cc2[nH]1` [Mebendazole, reference compound], the IC50 is above 20 µM in series [4] (setting [7]); above 20 µM in series [4] (setting [8]); above 16.4 µM in series [5] (setting [9]); above 20 µM in series [6] (setting [10]); above 16.4 µM in the series with 3T3 host cells; above 20 µM in series [2]. The IC50 in series [3] (setting [11]) is above 20 µM.
`OC(c1cc(C(F)(F)F)nc2c(C(F)(F)F)cccc12)C1CCCCN1` (centres unmarked) [Mefloquine, reference compound]: the IC50 in [4] (setting [7]) was 5.17 µM; in series [4] (setting [8]), 6.58 µM; in [5] (setting [9]) it was 4.7 µM; in series [6] (setting [10]), 0.33 µM; in the series on 3T3 host cells, above 16.4 µM; in series [2], 5.61 µM. Besides, the IC50 in [3] (setting [12]) was below 0.016 µM. Moreover, in [5] (reference compound set), the Emax turned out to be 99%.
On to `CCCCCCCCCCCCCCCCOP(=O)([O-])OCC[N+](C)(C)C` [Miltefosine, reference compound], for which the IC50 in series [4] (setting [7]) was 11.7 µM; in series [4] (setting [8]), 2.26 µM; in series [5] (setting [9]), above 16.4 µM; in series [6] (setting [10]) it was above 20 µM; in the series with 3T3 host cells, above 16.4 µM; in series [2] it was above 20 µM. Moreover, the IC50 in series [3] (setting [11]) was above 20 µM.
As to `CC1CS(=O)(=O)CCN1/N=C/c1ccc([N+](=O)[O-])o1` (centres unmarked) [Nifurtimox, reference compound], the IC50 in series [4] (setting [7]) was above 20 µM; in series [4] (setting [8]), above 20 µM; in series [5] (setting [13]) it was 1.23 µM; in series [5] (setting [9]) it was 1.42 µM; in series [6] (setting [10]) it was 5.38 µM; with 3T3 host cells it was above 16.4 µM. Also, the IC50 in [3] (setting [11]) is above 20 µM. In addition, the Emax in series [5] (reference compound set) was 100%. Moreover, the inhibition at 20 µM in series [2] worked out at 39%.
In the case of `CC(=O)Oc1ccccc1C(=O)Nc1ncc([N+](=O)[O-])s1` [Nitazoxanide, reference compound], the inhibition at 20 µM in series [4] (setting [14]) was found to be 44%; in [4] (setting [15]), 41%; in series [6] (reference compound set) it was 41%. Further, the IC50 in series [5] (setting [9]) is above 16.4 µM; in the series on 3T3 host cells, above 16.4 µM; in [2], above 20 µM; in series [3] (setting [11]), above 20 µM.
In the case of `N=C(N)c1ccc(OCCCCCOc2ccc(C(=N)N)cc2)cc1` [Pentamidine, reference compound], the IC50 in series [4] (setting [7]) was above 20 µM; in [4] (setting [8]), above 20 µM; in [5] (setting [9]), above 16.4 µM; in series [6] (in-house control stock, not the PBox sample, read-out: IC50 of standard in-house assay control, T. brucei brucei) it was below 0.001 µM; in [6] (setting [10]), below 0.02 µM; in the series on 3T3 host cells it was above 16.4 µM. The figures for the IC50 in [2] and in series [3] (setting [11]) were 1.43 µM and 0.01 µM, respectively. For the same molecule, the “activity against L. donovani at 20 μM” value in series [4] (PBox sample, 20 μM) is “did not show activity”. The “percent inhibition at the top screening dose, HEK293” value with HEK293 cells came out at 75%.
Take `CC[C@@H]([C@H](C)O)n1ncn(-c2ccc(N3CCN(c4ccc(OC[C@@H]5CO[C@@](Cn6cncn6)(c6ccc(F)cc6F)C5)cc4)CC3)cc2)c1=O` [Posaconazole, reference compound]: the inhibition at 20 µM in [4] (setting [14]) is 64%; in series [4] (setting [15]), 60%; in [2] it was 63%. The IC50 is 0.001 µM in series [5] (setting [13]); 0.172 µM in series [5] (setting [9]); above 20 µM in series [6] (setting [10]); above 16.4 µM in the series with 3T3 host cells; 4.1 µM in [3] (setting [11]). The Emax in [5] (reference compound set) worked out at 73%.
Regarding `O=C(C1CCCCC1)N1CC(=O)N2CCc3ccccc3C2C1` (centres unmarked) [Praziquantel, reference compound], the IC50 in [4] (setting [7]) is above 20 µM; in series [4] (setting [8]), above 20 µM; in series [5] (setting [9]), above 16.4 µM; in series [6] (setting [10]) it was above 20 µM; in the series with 3T3 host cells, above 16.4 µM; in series [2] it was above 20 µM. Also, in [3] (setting [11]), the IC50 was above 20 µM.
For the molecule `COc1cc(NC(C)CCCN)c2ncccc2c1` (centres unmarked) [Primaquine, reference compound], the inhibition at 20 µM in series [4] (setting [14]) amounted to 33%; in [4] (setting [15]), 79%; in series [6] (reference compound set), 91%; in [2], 96%; in series [3] (3D7, read-out: percent inhibition at the top screening dose, P. falciparum 3D7 ABS) it was 91%. Further, the inhibition at 16.4 µM came to 94% in series [5] (reference compound set, 16.4 μM, read-out: percent inhibition at the top screening dose, T. cruzi intracellular amastigotes) and 73% in the series on 3T3 host cells (16.4 μM, read-out: percent inhibition at the top screening dose, 3T3 host cells).
For the molecule `CCN(CC)CCCCCCNc1cc(OC)cc2c(C)ccnc12` [Sitamaquine, reference compound], the IC50 in series [4] (setting [7]) was above 20 µM; in [4] (setting [8]), above 20 µM; in [5] (setting [9]) it was above 16.4 µM; with 3T3 host cells it was above 16.4 µM; in series [2], 0.982 µM; in series [3] (setting [12]), 2.03 µM. Further, the inhibition at 20 µM in series [6] (reference compound set) stood at 91%. In addition, the “percent inhibition at the top screening dose, HEK293” value with HEK293 cells came out at 100%.
Consider `[H]/N=C(/N)N[C@H]1[C@H](O)[C@@H](O)[C@H](O[C@@H]2O[C@@H](C)[C@](O)(C=O)[C@H]2O[C@@H]2O[C@@H](CO)[C@H](O)[C@@H](O)[C@@H]2NC)[C@@H](N/C(N)=N\[H])[C@@H]1O` [Streptomycin, reference compound], for which the IC50 in series [4] (setting [7]) was above 20 µM; in [4] (setting [8]) it was above 20 µM; in [5] (setting [9]), above 16.4 µM; in series [6] (setting [10]), above 20 µM; in the series on 3T3 host cells it was above 16.4 µM; in series [3] (setting [11]) it was above 20 µM. Further, the inhibition at 20 µM in series [2] worked out at 41%.
As to `Cc1ccc(C(=O)Nc2ccc(S(=O)(=O)O)c3cc(S(=O)(=O)O)cc(S(=O)(=O)O)c23)cc1NC(=O)c1cccc(NC(=O)Nc2cccc(C(=O)Nc3cc(C(=O)Nc4ccc(S(=O)(=O)O)c5cc(S(=O)(=O)O)cc(S(=O)(=O)O)c45)ccc3C)c2)c1` [Suramin, reference compound], the IC50 is above 20 µM in series [4] (setting [7]); above 20 µM in series [4] (setting [8]); above 16.4 µM in [5] (setting [9]); 0.11 µM in series [6] (read-out: IC50 T. brucei brucei trypomastigotes); above 16.4 µM in the series with 3T3 host cells; above 20 µM in [2]. Further, in series [3] (setting [11]), the IC50 was above 20 µM.
